Test results reported in publication PMC7139549, “TLD1433 Photosensitizer Inhibits Conjunctival Melanoma Cells in Zebrafish Ectopic and Orthotopic Tumour Models” (Cancers, 2020).

Key:
[1] = system: CRMM2 cells injected into the Duct of Cuvier of zebrafish embryos; assay: Zebrafish ectopic CM tumour model, CRMM2; format: in vivo, Zebrafish (Danio rerio); details: for PI (Fluorescence Intensity) / PI (Tumour Area) / Relative Tumour Burden as Measured by Fluorescence Intensity / Tumour Area: CRMM2, Ectopic Model; for PI (Fluorescence Intensity) / PI (Tumour Area): 0 vs 114 J.cm^−2
Experimental: (§1) The zebrafish ectopic conjunctival melanoma tumour model has been described previously. In this model, around 200 fluorescent CM cells are injected into the Duct of Cuvier at 2 dpf, and then disseminate through the blood circulation and grow in the head and tail. To establish the orthotopic tumour model, around 100 red, (td)Tomato fluorescent CRMM1 or CRMM2 cells were injected RO at 2 dpf into tg(Fli:GFP/Casper), endothelial reporter transgenic zebrafish with green fluorescent vasculature and examined by fluorescent microscopy at day 1 and 4 after engraftment (Figure 6A). Tumour expansion at the injection site was measured as fluorescence intensity and tumour area.
(§2) For cancer cell injection, two days post-fertilization (dpf), dechorionated zebrafish embryos were anaesthetized with 0.003% tricaine (Sigma) and plated on a 10 cm Petri dish covered with 1.5% of solidified agarose. CRMM1 and CRMM2 cells were suspended in PBS containing 2% polyvinylpyrrolidone (PVP; Sigma-Aldrich) with a concentration of 50,000 cells/µL and loaded into borosilicate glass capillary needles (1 mm O.D. × 0.78 mm I.D.; Harvard Apparatus). In the ectopic model, 200 (td)Tomato fluorescent CM cells were injected into the Duct of Cuvier or at 2 dpf, which led to dissemination through the blood circulation and outgrowth in the head and tail. In orthotopic tumour model, 100 (td)Tomato fluorescent CRMM1 or CRMM2 cells were injected RO in 2 dpf embryos using a Pneumatic Picopump and a manipulator (WPI). After injection, the embryos were incubated in a 34 °C incubator. Images were acquired at 1-, 2- and 4-days post injection (dpi) with a Leica M165 FC stereo fluorescence microscope. Tumor growth was quantified by calculating the total fluorescence intensity and area with the ZF4 pixel counting program (Leiden). Each experiment was performed at least 3 times with a group size of >30 embryos.
(§3) Fluorescent CRMM1 and CRMM2 cells were injected at 2 dpf into the Duct of Cuvier (ectopic model) and behind the eye (orthotopic model) and TLD1433 was delivered by WA, IV and RO administration with or without a light treatment as described in 4.8. For the WA administration, the 4.6 nM TLD1433 solution was added to the tumour cells injected zebrafish at 2.5, 3.5, 4.5, 5.5 dpf and maintained for 12 h. At 3, 4, 5, 6 dpf, the fish water was refreshed, and after 1 h, embryos were exposed to green light for 90 min (21 mW/cm^2, 114 J/cm^2, 520 nm). For the IV and RO administration, 1 nL of 2.3 mM TLD1433 solution was injected via the dorsal vein or the RO site at 3, 4, 5, 6 dpf. After 1 h interval, the embryos were exposed to green light for 90 min (21 mW/cm^2, 114 J/cm^2, 520 nm). After treatment, the embryos images were acquired with a Leica M165 FC stereo fluorescence microscope. Tumor growth was quantified by calculating the total fluorescence intensity and area with the ZF4 pixel counting program (Leiden). Each experiment was performed at least 3 times with a group size of >30 embryos.

[2] = system: CRMM1 cells injected into the Duct of Cuvier of zebrafish embryos; assay: Zebrafish ectopic CM tumour model, CRMM1; format: in vivo, Zebrafish (Danio rerio); details: for PI (Fluorescence Intensity) / PI (Tumour Area) / Relative Tumour Burden as Measured by Fluorescence Intensity / Tumour Area: CRMM1, Ectopic Model; for PI (Fluorescence Intensity) / PI (Tumour Area): 0 vs 114 J.cm^−2
Experimental: as §1, §2, §3

[3] = Intravenous (1 nL of 2.3 mM), Light Dose 0 J.cm^−2, vs control dark group (100%)
[4] = Intravenous (1 nL of 2.3 mM), Light Dose 114 J.cm^−2, vs control dark group (100%)
[5] = Retro orbital (1 nL of 2.3 mM), Light dose 0 J.cm^−2, vs control dark group (100%)
[6] = Retro orbital (1 nL of 2.3 mM), Light dose 114 J.cm^−2, vs control dark group (100%)
[7] = Retro-orbital (1 nL of 2.3 mM), Light Dose 0 J.cm^−2, vs control dark group (100%)
[8] = Retro-orbital (1 nL of 2.3 mM), Light Dose 114 J.cm^−2, vs control dark group (100%)
[9] = Water (4.6 nM), Light dose 0 J.cm^−2, vs control dark group (100%)
[10] = Water (4.6 nM), Light dose 114 J.cm^−2, vs control dark group (100%)
[11] = CRMM2, ectopic model, IV 2.3 mM, light 114 J.cm^−2
[12] = CRMM2, ectopic model, RO 2.3 mM, green light 114 J.cm^−2
[13] = CRMM1, ectopic model, IV 2.3 mM, light 114 J.cm^−2
[14] = CRMM1, ectopic model, RO 2.3 mM, green light 114 J.cm^−2

Cc1ccnc(-c2cc(C)ccn2)c1.Cc1ccnc(-c2cc(C)ccn2)c1.[Cl-].[Cl-].[Ru+2].c1csc(-c2ccc(-c3ccc(-c4nc5c6cccnc6c6ncccc6c5[nH]4)s3)s2)c1 [TLD1433]
PI (Fluorescence Intensity) ([1]; Intravenous (1 nL of 2.3 mM)): 1.4
PI (Tumour Area) ([1]; Intravenous (1 nL of 2.3 mM)): 2.0
Relative Tumour Burden as Measured by Fluorescence Intensity [1, 3]: 97%
Tumour Area [1, 3]: 99%
Relative Tumour Burden as Measured by Fluorescence Intensity [1, 4]: 69%
Tumour Area [1, 4]: 50%
PI (Tumour Area) ([1]; Retro orbital (1 nL of 2.3 mM)): 2.0
Tumour Area [1, 5]: 94%
Tumour Area [1, 6]: 48%
PI (Fluorescence Intensity) ([1]; Retro-orbital (1 nL of 2.3 mM)): 1.6
Relative Tumour Burden as Measured by Fluorescence Intensity [1, 7]: 93%
Relative Tumour Burden as Measured by Fluorescence Intensity [1, 8]: 60%
PI (Fluorescence Intensity) ([1]; Water (4.6 nM)): 0.93
PI (Tumour Area) ([1]; Water (4.6 nM)): 0.90
Relative Tumour Burden as Measured by Fluorescence Intensity [1, 9]: 90%
Tumour Area [1, 9]: 92%
Relative Tumour Burden as Measured by Fluorescence Intensity [1, 10]: 96%
Tumour Area [1, 10]: 102%
inhibition of tumour area [1, 11]: 50%
inhibition of tumour fluorescence intensity [1, 11]: 31%
diminished fluorescence intensity [1, 12]: 40%
diminished tumour area [1, 12]: 52%
effect on tumour burden (in words) ([1]; CRMM2, ectopic model, WA at the MTD (4.6 nM), light 114 J.cm^−2): did not inhibit tumour burden
PI (Fluorescence Intensity) ([2]; Intravenous (1 nL of 2.3 mM)): 1.6
PI (Tumour Area) ([2]; Intravenous (1 nL of 2.3 mM)): 2.2
Relative Tumour Burden as Measured by Fluorescence Intensity [2, 3]: 94%
Tumour Area [2, 3]: 102%
Relative Tumour Burden as Measured by Fluorescence Intensity [2, 4]: 59%
Tumour Area [2, 4]: 46%
PI (Tumour Area) ([2]; Retro orbital (1 nL of 2.3 mM)): 2.4
Tumour Area [2, 5]: 85%
Tumour Area [2, 6]: 36%
PI (Fluorescence Intensity) ([2]; Retro-orbital (1 nL of 2.3 mM)): 1.6
Relative Tumour Burden as Measured by Fluorescence Intensity [2, 7]: 85%
Relative Tumour Burden as Measured by Fluorescence Intensity [2, 8]: 53%
PI (Fluorescence Intensity) ([2]; Water (4.6 nM)): 1.0
PI (Tumour Area) ([2]; Water (4.6 nM)): 1.0
Relative Tumour Burden as Measured by Fluorescence Intensity [2, 9]: 91%
Tumour Area [2, 9]: 103%
Relative Tumour Burden as Measured by Fluorescence Intensity [2, 10]: 89%
Tumour Area [2, 10]: 99%
inhibition of tumour area [2, 13]: 54%
inhibition of tumour fluorescence intensity [2, 13]: 41%
diminished fluorescence intensity [2, 14]: 47%
diminished tumour area [2, 14]: 64%
effect on tumour burden (in words) ([2]; CRMM1, ectopic model, WA at the MTD (4.6 nM), light 114 J.cm^−2): did not inhibit tumour burden
